From US20020183362A1, “2-Fluorobenzenesulfonyl compounds for the treatment of inflammation” (Pharmacia Corporation, priority 2000, published 2002)
Counter-ions that a name gives are not always drawn.

Tests used:
Human COX-2 [1] = target: T1, Human COX-2 (Homo sapiens, UniProt P35354); experiment: Assay for COX-1 and COX-2 activity (PGE2 ELISA, recombinant enzyme), COX-2; type: biochemical; details: Table I; pre-incubated 10-20 minutes, arachidonic acid 10 μM, stopped after ten minutes, pH 8.0
T1 construct: A 2.0 kb fragment containing the coding region of either human or murine COX-1 or human or murine COX-2; made in house; host or cells: SF9 insect cells (baculovirus, transfer vector pVL1393)
T1 sequence (P35354 18-604): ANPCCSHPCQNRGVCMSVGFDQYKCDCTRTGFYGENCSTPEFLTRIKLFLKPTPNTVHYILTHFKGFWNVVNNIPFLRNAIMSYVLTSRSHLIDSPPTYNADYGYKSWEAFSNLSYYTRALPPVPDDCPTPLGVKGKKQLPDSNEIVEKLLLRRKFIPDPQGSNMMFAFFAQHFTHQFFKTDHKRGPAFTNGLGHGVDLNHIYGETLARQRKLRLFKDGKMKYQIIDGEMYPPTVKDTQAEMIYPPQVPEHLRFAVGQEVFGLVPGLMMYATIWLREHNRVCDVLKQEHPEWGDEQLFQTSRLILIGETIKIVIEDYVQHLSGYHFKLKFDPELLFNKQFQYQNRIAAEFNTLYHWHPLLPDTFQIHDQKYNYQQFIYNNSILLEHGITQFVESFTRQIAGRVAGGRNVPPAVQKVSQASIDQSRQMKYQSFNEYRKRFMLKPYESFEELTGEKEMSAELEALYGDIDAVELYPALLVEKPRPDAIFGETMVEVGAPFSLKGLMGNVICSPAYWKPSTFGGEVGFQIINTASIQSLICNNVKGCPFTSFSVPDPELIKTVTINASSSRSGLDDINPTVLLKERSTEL
Protocol: The COX-2 inhibition activity of the compounds of this invention illustrated in the Examples was determined by the following methods.
(§1) Recombinant COX-1 and COX-2 were prepared as described by Gierse et al, [J. Biochem., 305, 479-84 (1995)]. A 2.0 kb fragment containing the coding region of either human or murine COX-1 or human or murine COX-2 was cloned into a BamH1 site of the baculovirus transfer vector pVL1393 (Invitrogen) to generate the baculovirus transfer vectors for COX-1 and COX-2 in a manner similar to the method of D. R. O'Reilly et al (Baculovirus Expression Vectors: A Laboratory Manual (1992)). Recombinant baculoviruses were isolated by transfecting 4 μg of baculovirus transfer vector DNA into SF9 insect cells (2×10^8) along with 200 ng of linearized baculovirus plasmid DNA by the calcium phosphate method. See M. D. Summers and G. E. Smith, A Manual of Methods for Baculovirus Vectors and Insect Cell Culture Procedures, Texas Agric. Exp. Station Bull. 1555 (1987). Recombinant viruses were purified by three rounds of plaque purification and high titer (10^7-10^8 pfu/mL) stocks of virus were prepared. For large scale production, SF9 insect cells were infected in 10 liter fermentors (0.5×10^6/mL) with the recombinant baculovirus stock such that the multiplicity of infection was 0.1. After 72 hours the cells were centrifuged and the cell pellet homogenized in Tris/Sucrose (50 mM: 25%, pH 8.0) containing 1% 3-[(3-cholamidopropyl)dimethylammonio]-1-propanesulfonate (CHAPS). The homogenate was centrifuged at 10,000×G for 30 minutes, and the resultant supernatant was stored at −80° C. before being assayed for COX activity.
(§2) COX activity was assayed as PGE2 formed/μg protein/time using an ELISA to detect the prostaglandin released. CHAPS-solubilized insect cell membranes containing the appropriate COX enzyme were incubated in a potassium phosphate buffer (50 mM, pH 8.0) containing epinephrine, phenol, and heme with the addition of arachidonic acid (10 μM). Compounds were pre-incubated with the enzyme for 10-20 minutes prior to the addition of arachidonic acid. Any reaction between the arachidonic acid and the enzyme was stopped after ten minutes at 37° C./room temperature by transferring 40 μl of reaction mix into 160 μELISA buffer and 25 μM indomethacin. The PGE2 formed was measured by standard ELISA technology (Cayman Chemical).

Human COX-1 [2] = target: T2, Human COX-1 (Homo sapiens, UniProt P23219); experiment: Assay for COX-1 and COX-2 activity (PGE2 ELISA, recombinant enzyme), COX-1; type: biochemical; details: Table I; pre-incubated 10-20 minutes, arachidonic acid 10 μM, stopped after ten minutes, pH 8.0
T2 construct: A 2.0 kb fragment containing the coding region of either human or murine COX-1 or human or murine COX-2; made in house; host or cells: SF9 insect cells (baculovirus, transfer vector pVL1393)
T2 sequence (P23219 24-599): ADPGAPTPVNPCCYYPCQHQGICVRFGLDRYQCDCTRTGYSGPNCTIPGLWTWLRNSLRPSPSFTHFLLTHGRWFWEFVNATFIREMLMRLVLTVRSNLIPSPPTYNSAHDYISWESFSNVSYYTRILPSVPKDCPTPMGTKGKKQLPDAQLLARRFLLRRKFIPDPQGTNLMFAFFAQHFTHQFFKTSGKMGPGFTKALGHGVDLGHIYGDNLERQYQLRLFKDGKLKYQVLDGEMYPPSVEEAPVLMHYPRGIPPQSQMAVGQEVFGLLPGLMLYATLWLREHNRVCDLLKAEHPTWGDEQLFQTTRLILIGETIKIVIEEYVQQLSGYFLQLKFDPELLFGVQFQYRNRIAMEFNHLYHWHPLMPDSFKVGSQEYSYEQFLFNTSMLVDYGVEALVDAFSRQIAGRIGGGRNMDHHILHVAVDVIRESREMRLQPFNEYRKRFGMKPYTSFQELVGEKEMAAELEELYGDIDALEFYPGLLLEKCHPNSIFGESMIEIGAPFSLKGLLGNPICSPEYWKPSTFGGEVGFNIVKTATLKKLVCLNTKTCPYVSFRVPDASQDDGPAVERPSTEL
Protocol: as §1, with “Recombinant” for “Recombinant COX-1 and COX-2 were prepared as described by Gierse et al, [J. Biochem., 305, 479-84 (1995)]. A 2.0 kb fragment containing the coding region of either human or murine COX-1 or human or murine COX-2 was cloned into a BamH1 site of the baculovirus transfer vector pVL1393 (Invitrogen) to generate the baculovirus transfer vectors for COX-1 and COX-2 in a manner similar to the method of D. R. O'Reilly et al (Baculovirus Expression Vectors: A Laboratory Manual (1992)). Recombinant”, “1555 (1987).” left out
as §2, with “Any reaction between the arachidonic acid and the enzyme was stopped after ten minutes at 37° C./room temperature by transferring 40 μl of reaction mix into 160 μELISA buffer and 25 μM indomethacin.” left out

Human COX-2 [3] = target: T1, Human COX-2; experiment: Fast assay for COX-1 and COX-2 activity (PGE2 ELISA), COX-2; type: biochemical; details: Table II, pre-incubated 10 minutes at 25° C., arachidonic acid 10 μM, stopped after two minutes, pH 7.5
Protocol: as §1
(§3) COX activity was assayed as PGE2 formed/μg protein/time using an ELISA to detect the prostaglandin released. CHAPS-solubilized insect cell membranes containing the appropriate COX enzyme were incubated in a potassium phosphate buffer (0.05 M Potassium phosphate, pH 7.5, 2 μM phenol, 1 μM heme, 300 μM epinephrine) with the addition of 20 μl of 100 μM arachidonic acid (10 μM). Compounds were pre-incubated with the enzyme for 10 minutes at 25° C. prior to the addition of arachidonic acid. Any reaction between the arachidonic acid and the enzyme was stopped after two minutes at 37° C./room temperature by transferring 40 μl of reaction mix into 160 μl ELISA buffer and 25 μM indomethacin. The PGE2 formed was measured by standard ELISA technology (Cayman Chemical).

Human COX-1 [4] = target: T2, Human COX-1; experiment: Fast assay for COX-1 and COX-2 activity (PGE2 ELISA), COX-1; type: biochemical; details: Table II, pre-incubated 10 minutes at 25° C., arachidonic acid 10 μM, stopped after two minutes, pH 7.5
Protocol: as §1, with “Recombinant” for “Recombinant COX-1 and COX-2 were prepared as described by Gierse et al, [J. Biochem., 305, 479-84 (1995)]. A 2.0 kb fragment containing the coding region of either human or murine COX-1 or human or murine COX-2 was cloned into a BamH1 site of the baculovirus transfer vector pVL1393 (Invitrogen) to generate the baculovirus transfer vectors for COX-1 and COX-2 in a manner similar to the method of D. R. O'Reilly et al (Baculovirus Expression Vectors: A Laboratory Manual (1992)). Recombinant”, “1555 (1987).” left out
as §3, with “Any reaction between the arachidonic acid and the enzyme was stopped after two minutes at 37° C./room temperature by transferring 40 μl of reaction mix into 160 μl ELISA buffer and 25 μM indomethacin.” left out

Compound | melting point [°C] | IC50 (Human COX-2 [1]) [nM] | IC50 (Human COX-1 [2]) [nM] | IC50 (Human COX-2 [3]) [nM] | IC50 (Human COX-1 [4]) [nM]
Cc1ccc(-c2cc(C(F)(F)F)nn2-c2ccc(S(N)(=O)=O)c(F)c2)cc1 (as salt: trifluoroacetate) [Example 4, 4-[5-(4-Methylphenyl)-3-(trifluoromethyl)-1H-pyrazol-1-yl]-2-fluorobenzenesulfonamide] | 126 to 128 | – | – | – | –
NS(=O)(=O)c1ccc(-n2nc(C(F)(F)F)cc2-c2ccc(Cl)cc2)cc1F (as salt: trifluoroacetate) [Example 5, 4-[5-(4-Chlorophenyl)-3-trifluoromethyl-1H-pyrazol-1-yl]-2-fluorobenzenesulfonamide] | 140 to 141 | – | – | – | –
COc1ccc(-c2cc(C(F)(F)F)nn2-c2ccc(S(N)(=O)=O)c(F)c2)cc1F (as salt: trifluoroacetate) [Example 6, 4-[5-(3-Fluoro-4-methoxy)-3-trifluoromethyl-1H-pyrazol-1-yl]-2-fluorobenzenesulfonamide] | 124 to 126 | – | – | – | –
NS(=O)(=O)c1ccc(-n2nc(C(F)(F)F)cc2-c2ccc(F)cc2)cc1F (as salt: trifluoroacetate) [Example 8, 2-Fluoro-4-[5-(4-fluorophenyl)-3-(trifluoromethyl)-1H-pyrazol-1-yl]benzenesulfonamide] | 127 to 130 | – | – | – | –
COc1ccccc1-c1cc(C(F)(F)F)nn1-c1ccc(S(N)(=O)=O)c(F)c1 (as salt: trifluoroacetate) [Example 9, 2-Fluoro-4-[5-(2-methoxyphenyl)-3-(trifluoromethyl)-1H-pyrazol-1-yl]benzenesulfonamide] | 159 to 160 | – | – | – | –
CS(=O)(=O)c1ccc(-c2cc(C(F)F)nn2-c2ccc(F)cc2)cc1F (as salt: trifluoroacetate) [Example 18, 3-(Difluoromethyl)-5-[3-fluoro-4-(methylsulfonyl)phenyl]-1-(4-fluorophenyl)-1H-pyrazole] | 201 to 202 | – | – | – | –
CS(=O)(=O)c1ccc(-c2cc(C(F)F)nn2C2CCCCC2)cc1F (as salt: trifluoroacetate) [Example 19, 1-Cyclohexyl-3-(difluoromethyl)-5-[3-fluoro-4-(methylsulfonyl)phenyl]-1H-pyrazole] | 138 to 139 | – | – | – | –
Cc1ccc(-n2nc(C(F)F)cc2-c2ccc(S(C)(=O)=O)c(F)c2)cc1Cl (as salt: trifluoroacetate) [Example 20, 1-(3-Chloro-4-methylphenyl)-3-(difluoromethyl)-5-[3-fluoro-4-(methylsulfonyl)phenyl]-1H-pyrazole] | 146 to 147 | – | – | – | –
CS(=O)(=O)c1ccc(-c2cc(C(F)F)nn2-c2cccc(C(F)(F)F)c2)cc1F (as salt: trifluoroacetate) [Example 21] | 110 to 111 | – | – | – | –
Cc1ccc(-c2cc(C(F)(F)F)nn2-c2ccc(S(N)(=O)=O)c(F)c2)cc1 [Example 4, 4-[5-(4-Methylphenyl)-3-(trifluoromethyl)-1H-pyrazol-1-yl]-2-fluorobenzenesulfonamide] | – | 19 | 40500 | 6 | 20300
NS(=O)(=O)c1ccc(-n2nc(C(F)(F)F)cc2-c2ccc(Cl)cc2)cc1F [Example 5, 4-[5-(4-Chlorophenyl)-3-trifluoromethyl-1H-pyrazol-1-yl]-2-fluorobenzenesulfonamide] | – | 5 | 45900 | 4 | 19900
COc1ccc(-c2cc(C(F)(F)F)nn2-c2ccc(S(N)(=O)=O)c(F)c2)cc1F [Example 6, 4-[5-(3-Fluoro-4-methoxy)-3-trifluoromethyl-1H-pyrazol-1-yl]-2-fluorobenzenesulfonamide] | – | 25 | 45600 | 18 | > 100000
COc1ccc(-c2cc(C(F)(F)F)nn2-c2ccc(S(N)(=O)=O)c(F)c2)cc1 [Example 7, 2-Fluoro-4-[5-(4-methoxyphenyl)-3-(trifluoromethyl)-1H-pyrazol-1-yl]benzenesulfonamide] | – | 5 | – | 4 | –
NS(=O)(=O)c1ccc(-n2nc(C(F)(F)F)cc2-c2ccc(F)cc2)cc1F [Example 8, 2-Fluoro-4-[5-(4-fluorophenyl)-3-(trifluoromethyl)-1H-pyrazol-1-yl]benzenesulfonamide] | – | 20 | 56800 | 21 | 41500
COc1ccccc1-c1cc(C(F)(F)F)nn1-c1ccc(S(N)(=O)=O)c(F)c1 [Example 9, 2-Fluoro-4-[5-(2-methoxyphenyl)-3-(trifluoromethyl)-1H-pyrazol-1-yl]benzenesulfonamide] | – | 250 | > 100000 | 180 | > 100000
COc1ccc(-c2cc(C(F)F)nn2-c2ccc(S(N)(=O)=O)c(F)c2)cc1F [Example 10, 4-[3-(Difluoromethyl)-5-(3-fluoro-4-methoxyphenyl)-1H-pyrazol-1-yl]-2-fluorobenzenesulfonamide] | 167 to 169 | 110 | > 100000 | – | –
Cc1onc(-c2ccccc2)c1-c1ccc(S(N)(=O)=O)c(F)c1 [Example 23] | 180 to 182 | – | – | – | –
